Source: ChEMBL document CHEMBL5260858, “Targeting mycobacterial membranes and membrane proteins: Progress and limitations” (Bioorg Med Chem, 2023)
In brackets after ≈: the same amount, converted by molar mass.

Assays:
[1] = test system: Mycobacterium tuberculosis variant bovis; test: Inhibition of mycolic acid biosynthesis in Mycobacterium bovis BCG assessed as decrease in methoxy-mycolic acid in presence of 14C-labeled acetic acid incubated for 60 mins by photo-stimulated luminescence analysis; format: functional, organism-based; conditions: 1 h
[2] = test system: Mycobacterium tuberculosis variant bovis; test: Inhibition of mycolic acid biosynthesis in Mycobacterium bovis BCG assessed as decrease in keto-mycolic acid in presence of 14C-labeled acetic acid incubated for 60 mins by photo-stimulated luminescence analysis; format: functional, organism-based; conditions: 1 h
[3] = test system: Mycobacterium tuberculosis variant bovis; test: Antitubercular activity against Mycobacterium bovis BCG assessed as bacterial growth inhibition incubated for 14 days by agar plate method; format: functional; conditions: 336 h, time 14 day
[4] = test system: Mycobacterium tuberculosis variant bovis; test: Antitubercular activity against Mycobacterium tuberculosis variant bovis assessed as bacterial growth inhibition; format: functional
[5] = test system: Mycobacterium tuberculosis variant bovis; test: Antitubercular activity against Mycobacterium bovis assessed as bacterial growth inhibition; format: functional
[6] = test system: Mycobacterium tuberculosis variant bovis; test: Antitubercular activity against Mycobacterium bovis BCG infected in mouse J774.A1 cells assessed as reduction in intracellular bacterial load incubated for 6 days; format: functional; conditions: 144 h, time 6 day
[7] = test system: Mycobacterium tuberculosis variant bovis; test: Antitubercular activity against Mycobacterium bovis BCG assessed as bacterial growth inhibition incubated for 24 hrs by [14C]-acetate labelling based radiometric analysis; format: functional
[8] = test system: Mycobacterium tuberculosis variant bovis; test: Antitubercular activity against Mycobacterium bovis BCG assessed as bacterial growth inhibition; format: functional
[9] = test system: Mycobacterium tuberculosis variant bovis; test: Antitubercular activity against Mycobacterium bovis BCG assessed as minimum bactericidal concentration for 99.9% activity; format: functional; conditions: read-out: MBC99.9

How did the IC50 [1] turn out when `NNC(=O)c1ccncc1` [ISONIAZID] was run?
The IC50 was 0.036 µg/mL.

What about the IC50 [2] of the same molecule?
The IC50 was 0.021 µg/mL.

Which MIC [3] does the source give for `Cc1cc2oc(=O)cc(-c3cccc(N)c3)c2c(C)c1-c1ccc(CN2CCOCC2)cc1` here?
Its MIC is 0.71 µM (≈ 0.313 µg/mL).

Which MIC [4] does the source give for `CCc1nc2ccc(Cl)cn2c1C(=O)NCc1ccc(N2CCC(c3ccc(OC(F)(F)F)cc3)CC2)cc1` [TELACEBEC] here?
The MIC was 0.0035 µM (≈ 0.00195 µg/mL).

`C[C@@]1(COc2ccc(N3CCC(Oc4ccc(OC(F)(F)F)cc4)CC3)cc2)Cn2cc([N+](=O)[O-])nc2O1` was tested. Which IC50 [1] did it give?
The IC50 was 0.63 µg/mL.

What about the IC50 [2] of the same molecule?
Its IC50 is 0.69 µg/mL.

With `COc1nc2ccc(Br)cc2cc1[C@@H](c1ccccc1)[C@@](O)(CCN(C)C)c1cccc2ccccc12` [BEDAQUILINE] as the molecule, how does the MIC [5] read?
The MIC was 0.003 µg/mL (≈ 5.4 nM).

`COC(=O)c1c(NC(=O)c2c(F)c(F)c(F)c(F)c2F)sc(C(N)=O)c1C` was tested. Which MIC [6] did it give?
Its MIC is 6.4 µM (≈ 2.61 µg/mL).

`CCc1ccc([C@H]2C[C@@H](C(F)(F)F)n3ncc(C(=O)NCc4ccc5c(c4)OCO5)c3N2)cc1` was tested. Which MIC [7] did it give?
The MIC was 0.8 µM (≈ 0.378 µg/mL).

`COC(=O)c1c(NC(=O)c2c(F)c(F)c(F)c(F)c2F)sc2c1CCCCC2` was tested. Which MIC [6] did it give?
The MIC was 12.8 µM (≈ 5.37 µg/mL).

Which MIC [7] does the source give for `CCc1ccc([C@H]2C[C@@H](C(F)(F)F)n3ncc(C(=O)NCc4ccc(OC)cc4)c3N2)cc1` here?
Its MIC is 0.3 µM (≈ 0.138 µg/mL).

For `CCCCCCCCn1cc(CN2CCC3(CC2)OCCCO3)c2ccc(OC)cc21`, which MIC50 [8] is on record?
The MIC50 was 0.3 µM (≈ 0.129 µg/mL).

What about the MBC [9] of the same molecule?
Its MBC is 1.2 µM (≈ 0.514 µg/mL).

Which MIC50 [5] does the source give for `COc1cccc2ccn(CCCCC[P+](c3ccccc3)(c3ccccc3)c3ccccc3)c12` here?
Its MIC50 is 2 µM.

What does the source list for `CCCCCCCCn1cc(CN2CCCCCC2)c2c(F)cccc21`?
MIC50 [8]: 0.3 µM (≈ 0.108 µg/mL); MBC [9]: 12 µM (≈ 4.3 µg/mL)

Which MIC50 [5] does the source give for `O=[N+]([O-])c1cccc2c1ccn2CCCCC[P+](c1ccccc1)(c1ccccc1)c1ccccc1` here?
Its MIC50 is 3 µM.
